Peptide text beside a SMILES is read from it.

One data set concerns ARPE-19 cells. The data set is described as follows: ARPE-19 cell lysis (Sytox Green). Type of data set: cell-based, human. The note with it: 10 μM peptide, 2 h. The protocol:
These figures illustrate ARPE-19 cell lysis. ARPE-19 cells were grown in 96-well plates to 75-85% confluence. Peptides at 10 mM were diluted in serum-free DMEM:F12 media into a 20 μM working solution (a 2× solution). Sytox Green was prepared in serum-free DMEM:F12 at a 1 μM working solution (a 2× solution). Equivalent volumes of the peptide and Sytox Green solutions were added to empty 96-well plates and mixed gently. Final peptide concentration was 10 μM. ARPE-19 cells (˜80% confluent in 96-well plates) were washed with DPBS and then incubated in 100 μL of peptide/Sytox Green mixture for 2 h at 37° C. Cells were fixed in 4% paraformaldehyde solution in DPBS and then incubated in 10 μM Hoechst solution for 10 min, washed, and imaged on a Yokogawa CQ1 high-content imager. CellPathfinder software was used to count live/dead cells in 4 fields of view at 20× magnification. Percent (%) lysis was calculated by dividing the number of Sytox Green+ nuclei by the total number of Hoechst+ nuclei.
ARPE-19 cells were grown in 96-well plates to 75-85% confluence. Peptides at 10 mM were diluted in serum-free DMEM: F12 media to solutions between […]. Sytox Green was prepared in serum-free DMEM: F12 media at a 1 μM working solution. Equivalent volumes of the peptide and Sytox Green solutions were added to empty 96-well plates and mixed gently. Final peptide concentration was 3.16-100 μM. ARPE-19 cells (˜80% confluent in 96-well plates) were washed with DPBS and then incubated in 100 μL of peptide/Sytox Green mixture for 2 h at 37° C. Cells were fixed in 4% paraformaldehyde solution in DPBS and then incubated in 10 μM Hoechst solution for 10 min, washed, and imaged on a Yokogawa CQ1 high-content imager. CellPathfinder software was used to count live/dead cells in 4 fields of view at 20× magnification. Percent (%) lysis was calculated by dividing the number of Sytox Green+ nuclei by the total number of Hoechst+ nuclei. Non-linear regression was used to calculate EC50 values.

Data set [1] is described as follows: DMPC solubility assay, 0.5 mM DMPC (turbidity reduction). The class given is biochemical. The note with it: FIGS. 2A-2D and 3A-3C. The protocol: In this example, peptide stocks were diluted to 200 μM in H2O (a 2× solution) and 50 μL of peptide solution was transferred in triplicate into 96-well plates. A one mM solution of 1,2-dimyristoyl-sn-glycero-3-phosphocholine (DMPC) in H2O was prepared, and using a multichannel pipet, 50 μL DMPC solution was rapidly added to the plate. Peptide and lipid solutions were incubated at room temperature for 15 minutes with a final concentration of 100 μM peptides and 0.5 mM DMPC. After 15 minutes, absorbance was read on a plate reader at 405 nm. […] Data are presented as mean+SD over two runs.
In these experiments, DMPC solubility titration curves were generated. Peptide stocks were diluted to 200 μM in H2O (a 2× solution) and serially diluted in H2O over 4 concentrations, then 50 μL of peptide solutions were distributed in triplicate into 96-well plates. A 1 mM solution of 1,2-dimyristoyl-sn-glycero-3-phosphocholine (DMPC) in H2O was prepared, and using a multichannel pipet, 50 μL DMPC solution was rapidly added to the plate. Peptide and lipid solutions were incubated at room temperature for 15 minutes with final concentrations of 3.16-100 μM peptides and 0.5 mM DMPC. After 15 minutes, absorbance was read on a plate reader at 405 nm. […] Data are presented as mean+SD over two runs. Non-linear regression was used to calculate EC50 values.

The target in data set [2] is T1, LDLR (Homo sapiens, UniProt P01130). The data set is described as follows: lipid-dependent LDLR binding (SPR), single concentration. The settings on record: 1 μM peptide with or without 25 μM DMPC. The protocol: Peptides were diluted in 1×HBS-N buffer with 1 mM CaCl2 to a final concentration of 1 μM and incubated with or without 25 μM DMPC for 1 hour at RT to form lipid complexes. Each peptide was tested in duplicate. LDLR was diluted to 10 μg/mL in 10 mM acetate buffer pH 4.5 and was immobilized (˜400RU) on a CM5 chip via amine coupling utilizing 1×HBS-P+ buffer with 1 mM CaCl2. Test peptides (with or without DMPC) were exposed to immobilized LDLR at a flow rate of […] for 120 seconds in HBS-N with 1 mM CaCl2. Between cycles the surface was regenerated with 3, 30 second injections of 10 mM NaOH and 100 mM EDTA. Data are plotted as max RU values, averaged from three separate runs.
Target sequence in this assay (P01130 22-860): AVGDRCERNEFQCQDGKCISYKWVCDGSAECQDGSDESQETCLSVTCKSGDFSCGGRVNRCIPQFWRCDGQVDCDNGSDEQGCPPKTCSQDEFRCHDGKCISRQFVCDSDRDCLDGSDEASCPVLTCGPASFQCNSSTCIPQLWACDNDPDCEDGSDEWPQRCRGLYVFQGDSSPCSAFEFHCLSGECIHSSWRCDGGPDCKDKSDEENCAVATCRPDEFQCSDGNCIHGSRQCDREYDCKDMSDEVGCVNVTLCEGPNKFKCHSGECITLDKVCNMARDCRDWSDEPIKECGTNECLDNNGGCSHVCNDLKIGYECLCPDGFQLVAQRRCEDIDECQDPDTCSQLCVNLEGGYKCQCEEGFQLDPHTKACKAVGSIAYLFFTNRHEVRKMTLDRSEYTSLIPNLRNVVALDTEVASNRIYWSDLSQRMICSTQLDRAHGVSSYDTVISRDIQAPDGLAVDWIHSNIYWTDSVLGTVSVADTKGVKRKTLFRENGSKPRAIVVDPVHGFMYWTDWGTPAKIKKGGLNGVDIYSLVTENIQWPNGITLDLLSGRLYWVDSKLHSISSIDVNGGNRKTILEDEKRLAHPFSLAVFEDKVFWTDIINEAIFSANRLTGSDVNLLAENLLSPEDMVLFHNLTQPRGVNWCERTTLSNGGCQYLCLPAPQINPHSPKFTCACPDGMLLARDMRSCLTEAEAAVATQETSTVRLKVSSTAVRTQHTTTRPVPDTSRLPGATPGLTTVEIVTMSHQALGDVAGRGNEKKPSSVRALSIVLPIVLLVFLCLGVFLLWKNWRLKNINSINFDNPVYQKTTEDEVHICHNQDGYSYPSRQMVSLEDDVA

The nature of data set [3]: peptide binding to non-oxidized and oxidized lipids (SPR). The note with it: immobilized peptide; RU normalized to DMPC. The protocol: FIGS. 25A-25O show peptide binding activity to non-oxidized and oxidized lipids via SPR for indicated peptides. Peptides were reconstituted to 50 μg/mL in 10 mM acetate buffer, pH 4.5 and immobilized to ˜200 RU on a CM5 chip via amine coupling. Non-oxidized lipids (DMPC & POPC) and oxidized lipids (POVPC & KOdiA-PC) were diluted to 100 µM in HBS-EP running buffer and exposed to the chip for binding (n=3) at a flow rate of […] for 120 seconds. The surface was regenerated with 20% EtOH. T-001 served as a positive control and T-031 served as a negative control on each chip. For each peptide, the RU response for all lipids was normalized to the DMPC RU values.

Another data set deals with C57BL/6J mice. The data set is described as follows: tolerability testing in mice after intravitreal injection (H&E histopathology). Type of data set: in vivo, mouse. The settings on record: IVT, 520 μM, seven days. The text has this:
Seven days following IVT injection, eyes were harvested and prepared for hematoxylin and eosin staining. A blinded veterinarian performed histopathological analysis of tissue slices to determine whether the peptides induced inflammation or retinal disruption.

Data set [4] deals with T1, LDLR. The data set is described as follows: KD (µM). The text has this:
First copying reader's note: Left of three side-by-side panels of FIG. 23; the KD cells hold value ± error together. Where the first naming reader finds the target: description_of_the_figure: FIG. 23 is a table showing the binding kinetics results of LDLR binding assays (SPR)
Target sequence in this assay (P01130 22-860 limits assumed): as the sequence (P01130 22-860) above

The target in data set [5] is T1, LDLR. The data set is described as follows: KD, Peptide (μM).
Target sequence in this assay (P01130 22-860 limits assumed): as the sequence (P01130 22-860) above
Excerpt: Title: Buffer: HBS + 0.005% P20
Head of the field: KD, Peptide (μM)
First copying reader's note: KD values are for binding to LDLR by SPR, peptide alone versus peptide:DMPC lipid complex; the table continues on FIG. 24B.

As to `CC(C)C[C@H](NC(=O)[C@H](Cc1ccccc1)NC(=O)[C@H](CCC(=O)O)NC(=O)[C@H](CCC(=O)O)NC(=O)[C@H](CC(C)C)NC(=O)[C@H](CCC(N)=O)NC(=O)[C@H](CCCNC(=N)N)NC(=O)CNC(=O)[C@@H](NC(=O)[C@H](CC(C)C)NC(=O)[C@H](CCCNC(=N)N)NC(=O)[C@H](CC(C)C)NC(=O)[C@H](CC(C)C)NC(=O)[C@H](CCCNC(=N)N)NC(=O)[C@H](CCCCN)NC(=O)[C@H](CCCNC(=N)N)NC(=O)[C@H](CC(C)C)NC(=O)[C@H](CCCCN)NC(=O)[C@H](CCCNC(=N)N)NC(=O)[C@H](CC(C)C)NC(=O)[C@@H](N)Cc1c[nH]cn1)C(C)C)C(=O)O` [T-028] (H-HLRKLRKRLLRLVGRQLEEFL-OH), the ARPE-19 cell lysis result in the data set on ARPE-19 cells is reported as “induce cell lysis”.
Consider “T-009: therapeutic peptide (EELRVRLASHLRKLRKRLLRDADDLQKRLAVYQAGAREGAERGLSAIRER)”, for which the DMPC solubilizing activity result in data set [1] is given as “significant activity”. Besides, in the data set with LDLR [2], the “lipid-dependent LDLR binding (RU with lipid vs peptide alone)” value is “lipid-dependent LDLR binding activity”. The “binding to oxidized lipids relative to DMPC” value in data set [3] is given as “binding to at least one oxidized lipid that was equivalent or improved to binding against DMPC”.
Regarding `CC[C@H](C)[C@H](NC(=O)[C@H](Cc1ccccc1)NC(=O)[C@H](CCCNC(=N)N)NC(=O)[C@H](CCCCN)NC(=O)[C@H](CC(C)C)NC(=O)[C@H](CCC(=O)O)NC(=O)[C@H](CCCCN)NC(=O)[C@H](CC(C)C)NC(=O)[C@H](C)NC(=O)[C@H](CO)NC(=O)[C@H](CCC(=O)O)NC(=O)[C@H](CC(C)C)NC(=O)[C@H](C)NC(=O)[C@H](CC(=O)O)NC(=O)[C@H](C)NC(=O)CNC(=O)[C@H](CO)NC(=O)[C@@H](N)CCCNC(=N)N)C(=O)N[C@@H](CCCNC(=N)N)C(=O)N[C@@H](CCC(=O)O)C(=O)N[C@@H](Cc1c[nH]c2ccccc12)C(=O)N[C@H](C(=O)O)[C@@H](C)O` [T-101] (H-RSGADALESALKELKRFIREWT-OH; N-terminus and C-terminus assumed), in the data set with C57BL/6J mice, the “in vivo tolerability (inflammation or retinal disruption)” value is “well tolerated”.
For the molecule `CC(C)C[C@H](NC(=O)[C@H](CC(C)C)NC(=O)[C@H](CCCNC(=N)N)NC(=O)[C@H](CCCCN)NC(=O)[C@H](CCCNC(=N)N)NC(=O)[C@H](CC(C)C)NC(=O)[C@H](CCCCN)NC(=O)[C@H](CCCNC(=N)N)NC(=O)[C@H](CC(C)C)NC(=O)[C@@H](N)Cc1c[nH]cn1)C(=O)N[C@@H](CCCNC(=N)N)C(=O)N[C@@H](CC(=O)O)C(=O)N[C@@H](Cc1c[nH]c2ccccc12)C(=O)N[C@@H](Cc1ccccc1)C(=O)N[C@@H](CCCCN)C(=O)N[C@@H](C)C(=O)N[C@@H](Cc1ccccc1)C(=O)N[C@@H](Cc1ccc(O)cc1)C(=O)N[C@@H](CC(=O)O)C(=O)N[C@@H](CCCCN)C(=O)N[C@H](C(=O)N[C@@H](C)C(=O)N[C@@H](CCC(=O)O)C(=O)N[C@@H](CCCCN)C(=O)N[C@@H](Cc1ccccc1)C(=O)N[C@@H](CCCCN)C(=O)N[C@@H](CCC(=O)O)C(=O)N[C@@H](C)C(=O)N[C@@H](Cc1ccccc1)C(=O)O)C(C)C` [T-021] (H-HLRKLRKRLLRDWFKAFYDKVAEKFKEAF-OH), the ARPE-19 cell lysis result in the data set with ARPE-19 cells is given as “induce cell lysis”.
Turning to “T-030: therapeutic peptide (EHLCELIERACRKLVELQEKLSKWLIAELGEGWRQWLHSLKEFLS)”, the DMPC solubilizing activity result in data set [1] is recorded as “significant activity”. For the same molecule, the “binding to oxidized lipids relative to DMPC” value in data set [3] is recorded as “binding to at least one oxidized lipid that was equivalent or improved to binding against DMPC”.
As to “T-018: therapeutic peptide (HLRKLRKRLLRPPEQAQQIRLQAEAFQARLKSWFE)”, the DMPC solubilizing activity entry in data set [1] was “significant activity”. The “lipid-dependent LDLR binding (RU with lipid vs peptide alone)” value with LDLR [2] is “lipid-dependent LDLR binding activity”.
For the molecule “T-007: therapeutic peptide (EELRVRLASHLRKLRKRLLRDADDLQKRLAVYQA)”, the DMPC solubilizing activity entry in data set [1] was “significant activity”. Further, the “lipid-dependent LDLR binding (RU with lipid vs peptide alone)” value with LDLR [2] was “lipid-dependent LDLR binding activity”.
On to `CC(C)C[C@H](NC(=O)[C@H](CCCNC(=N)N)NC(=O)[C@H](CC(=O)O)NC(=O)[C@H](CCC(N)=O)NC(=O)[C@H](CC(C)C)NC(=O)[C@H](CCCCN)NC(=O)[C@H](CC(=O)O)NC(=O)CNC(=O)[C@H](CC(=O)O)NC(=O)[C@H](CCCNC(=N)N)NC(=O)[C@H](CC(C)C)NC(=O)[C@H](CC(C)C)NC(=O)[C@H](CCCNC(=N)N)NC(=O)[C@H](CCCCN)NC(=O)[C@H](CCCNC(=N)N)NC(=O)[C@H](CC(C)C)NC(=O)[C@H](CCCCN)NC(=O)[C@H](CCCNC(=N)N)NC(=O)[C@H](CC(C)C)NC(=O)[C@@H](N)Cc1c[nH]cn1)C(=O)N[C@@H](C)C(=O)N[C@H](C(=O)N[C@@H](Cc1ccc(O)cc1)C(=O)N[C@@H](CCC(N)=O)C(=O)N[C@@H](C)C(=O)N[C@@H](CCCNC(=N)N)C(=O)N[C@@H](C)C(=O)N[C@@H](CCCCN)C(=O)N[C@@H](CCC(=O)O)C(=O)N[C@@H](C)C(=O)N[C@@H](Cc1ccccc1)C(=O)N[C@@H](CC(=O)O)C(=O)N[C@@H](CCCNC(=N)N)C(=O)O)C(C)C` [T-053] (H-HLRKLRKRLLRDGDKLQDRLAVYQARAKEAFDR-OH; N-terminus and C-terminus assumed), for which the dissociation constant (Kd) on LDLR [4] is 0.121 ± 0.0149 mM; at LDLR [5], 43 ± 34 mM.
On to `CC[C@H](C)[C@H](NC(=O)CN)C(=O)N[C@@H](CCCCN)C(=O)N[C@@H](CCCCN)C(=O)N[C@@H](Cc1ccccc1)C(=O)N[C@@H](CC(C)C)C(=O)NCC(=O)N[C@@H](CO)C(=O)N[C@H](C(=O)N[C@@H](Cc1c[nH]c2ccccc12)C(=O)N[C@@H](CCCCN)C(=O)N[C@@H](Cc1ccccc1)C(=O)N[C@H](C(=O)N[C@@H](CCCCN)C(=O)N[C@@H](C)C(=O)N[C@@H](Cc1ccccc1)C(=O)N[C@H](C(=O)NCC(=O)O)C(C)C)[C@@H](C)CC)[C@@H](C)CC` [T-034, reference compound] (H-GIKKFLGSIWKFIKAFVG-OH), for which the ARPE-19 cell lysis result with ARPE-19 cells was “induce cell lysis”.

The values are drawn from US20260115250A1, “METHODS OF TREATING AGE-RELATED MACULAR DEGENERATION” (Character Biosciences, Inc., priority 2022, published 2026).
